# Experimental data reported in ChEMBL document CHEMBL5380821, “Discovery of a PDZ Domain Inhibitor Targeting the Syndecan/Syntenin Protein-Protein Interaction: A Semi-Automated "Hit Identification-to-Optimization" Approach” (J Med Chem, 2023).
# The source made the active and inactive calls. The calls are words filed in the database; no cut-off is given here.
# How the values were obtained:
# [1] = molecular target: Syntenin-1/Syndecan-2 (Homo sapiens, UniProt O00560); assay: Inhibition of full length N-terminal GST-tagged human syntenin-1 expressed in Escherichia coli ER2566/syndecan2 (unknown origin) interaction incubated for 16 hrs by HTRF assay
# Syntenin-1/Syndecan-2, sequence (P34741 whole entry, one chain of several, further chain): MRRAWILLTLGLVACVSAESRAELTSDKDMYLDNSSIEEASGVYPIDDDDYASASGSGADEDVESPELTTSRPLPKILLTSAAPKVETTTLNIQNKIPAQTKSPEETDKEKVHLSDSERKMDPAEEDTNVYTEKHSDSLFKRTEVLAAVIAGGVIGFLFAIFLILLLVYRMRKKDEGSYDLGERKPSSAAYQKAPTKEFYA
# [2] = molecular target: T1, Syntenin-1/Syndecan-2 (Homo sapiens) (UniProt O00560+P34741); assay: Inhibition of full length N-terminal GST-tagged human syntenin-1 expressed in Escherichia coli ER2566/syndecan2 (unknown origin) interaction at 200 uM incubated for 16 hrs by HTRF assay relative to control
# [3] = test system: MDA-MB-231; assay: Inhibition of cell migration in wild-type human MDA-MB-231 cells assessed as decrease in euclidean distance at 100 uM incubated for 24 hrs by 2D phase contrast video microscopic analysis; format: functional, cell-based
# [4] = test system: MDA-MB-231; assay: Inhibition of cell migration in wild-type human MDA-MB-231 cells assessed as decrease in migration speed at 100 uM incubated for 24 hrs by 2D phase contrast video microscopic analysis; format: functional, cell-based
# [5] = test system: MDA-MB-231; assay: Cytotoxicity against wild-type human MDA-MB-231 cells assessed as reduction in cell viability upto 100 uM measured after 48 hrs by Annexin V-FITC staining based flow cytometric analysis; format: functional
# [6] = test system: MDA-MB-231; assay: Cytotoxicity against human MDA-MB-231 cells with syntenin CRISPR/Cas9 knockout assessed as reduction in cell viability upto 100 uM measured after 48 hrs by Annexin V-FITC staining based flow cytometric analysis; format: functional
# [7] = molecular target: GRASP55-JAMB (Homo sapiens) (UniProt Q9H8Y8+P57087); assay: Inhibition of N-terminal GST-tagged GRASP55 (unknown origin) expressed in Escherichia coli BL21 (DE3) cells/JAM-B (unknown origin) complex incubated for 16 hrs by HTRF assay
# GRASP55-JAMB (Homo sapiens), sequence (P57087 whole entry, looked up, other chains not shown): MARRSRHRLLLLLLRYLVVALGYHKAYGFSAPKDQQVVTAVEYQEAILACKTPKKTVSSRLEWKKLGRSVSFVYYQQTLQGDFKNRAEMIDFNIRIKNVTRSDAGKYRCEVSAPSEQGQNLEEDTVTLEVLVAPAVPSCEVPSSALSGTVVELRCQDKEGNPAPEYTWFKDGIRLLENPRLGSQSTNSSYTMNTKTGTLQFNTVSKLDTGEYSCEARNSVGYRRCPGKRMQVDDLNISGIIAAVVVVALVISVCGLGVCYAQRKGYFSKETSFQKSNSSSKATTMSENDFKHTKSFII
# [8] = molecular target: T1, Syntenin-1/Syndecan-2 (Homo sapiens); assay: Inhibition of full length N-terminal GST-tagged human syntenin-1 expressed in Escherichia coli ER2566/syndecan2 (unknown origin) interaction at 200 uM incubated for 16 hrs in the presence of NP-40 by HTRF assay
# [9] = test system: MDA-MB-231; assay: Inhibition of cell migration in human MDA-MB-231 cells with syntenin CRISPR/Cas9 knockout assessed as decrease in euclidean distance at 100 uM incubated for 24 hrs by 2D phase contrast video microscopic analysis; format: functional, cell-based
# [10] = molecular target: ERBIN-P0071 (Homo sapiens) (UniProt Q96RT1+Q99569); assay: Inhibition of N-terminal GST-tagged Erbin (unknown origin) expressed in Escherichia coli BL21 (DE3) cells/P0071 (unknown origin) complex incubated for 16 hrs by HTRF assay
# ERBIN-P0071 (Homo sapiens), sequence (Q96RT1 whole entry, looked up): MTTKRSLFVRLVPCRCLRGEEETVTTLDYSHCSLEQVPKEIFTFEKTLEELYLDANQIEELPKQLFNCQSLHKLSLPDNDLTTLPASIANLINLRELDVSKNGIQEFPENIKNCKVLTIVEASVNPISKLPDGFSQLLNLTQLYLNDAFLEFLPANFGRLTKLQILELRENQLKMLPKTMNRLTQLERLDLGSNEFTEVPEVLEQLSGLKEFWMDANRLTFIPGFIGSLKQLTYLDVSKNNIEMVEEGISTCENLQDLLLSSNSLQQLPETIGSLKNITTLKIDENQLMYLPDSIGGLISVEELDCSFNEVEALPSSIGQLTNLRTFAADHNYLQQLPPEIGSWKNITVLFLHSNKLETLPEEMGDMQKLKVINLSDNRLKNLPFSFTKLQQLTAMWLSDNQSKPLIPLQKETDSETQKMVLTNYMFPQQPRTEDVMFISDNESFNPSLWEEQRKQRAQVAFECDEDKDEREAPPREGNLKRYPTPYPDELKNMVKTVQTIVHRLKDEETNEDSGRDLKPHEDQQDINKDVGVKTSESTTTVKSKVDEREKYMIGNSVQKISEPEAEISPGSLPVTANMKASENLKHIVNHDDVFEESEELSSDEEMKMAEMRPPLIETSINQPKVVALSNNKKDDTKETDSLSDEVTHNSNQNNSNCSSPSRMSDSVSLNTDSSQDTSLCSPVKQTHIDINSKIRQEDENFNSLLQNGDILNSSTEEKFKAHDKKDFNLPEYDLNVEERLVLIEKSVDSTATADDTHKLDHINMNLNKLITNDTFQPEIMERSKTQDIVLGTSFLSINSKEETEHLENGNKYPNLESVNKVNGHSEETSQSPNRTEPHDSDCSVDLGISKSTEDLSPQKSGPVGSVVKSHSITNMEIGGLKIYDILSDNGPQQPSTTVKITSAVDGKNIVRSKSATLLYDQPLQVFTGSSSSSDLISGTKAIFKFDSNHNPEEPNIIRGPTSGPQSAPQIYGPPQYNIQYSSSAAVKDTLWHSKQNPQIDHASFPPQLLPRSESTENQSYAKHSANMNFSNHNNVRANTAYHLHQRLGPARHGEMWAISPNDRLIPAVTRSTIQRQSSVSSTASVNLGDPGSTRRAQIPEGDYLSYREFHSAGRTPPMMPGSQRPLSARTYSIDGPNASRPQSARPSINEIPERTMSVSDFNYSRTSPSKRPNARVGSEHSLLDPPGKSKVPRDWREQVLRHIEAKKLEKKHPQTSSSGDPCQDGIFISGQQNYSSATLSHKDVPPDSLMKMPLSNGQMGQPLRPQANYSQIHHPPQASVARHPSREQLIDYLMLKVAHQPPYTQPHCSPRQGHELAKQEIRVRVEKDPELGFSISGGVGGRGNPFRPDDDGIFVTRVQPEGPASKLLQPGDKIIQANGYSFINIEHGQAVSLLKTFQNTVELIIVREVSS
# ERBIN-P0071 (Homo sapiens), sequence (Q99569 whole entry, looked up): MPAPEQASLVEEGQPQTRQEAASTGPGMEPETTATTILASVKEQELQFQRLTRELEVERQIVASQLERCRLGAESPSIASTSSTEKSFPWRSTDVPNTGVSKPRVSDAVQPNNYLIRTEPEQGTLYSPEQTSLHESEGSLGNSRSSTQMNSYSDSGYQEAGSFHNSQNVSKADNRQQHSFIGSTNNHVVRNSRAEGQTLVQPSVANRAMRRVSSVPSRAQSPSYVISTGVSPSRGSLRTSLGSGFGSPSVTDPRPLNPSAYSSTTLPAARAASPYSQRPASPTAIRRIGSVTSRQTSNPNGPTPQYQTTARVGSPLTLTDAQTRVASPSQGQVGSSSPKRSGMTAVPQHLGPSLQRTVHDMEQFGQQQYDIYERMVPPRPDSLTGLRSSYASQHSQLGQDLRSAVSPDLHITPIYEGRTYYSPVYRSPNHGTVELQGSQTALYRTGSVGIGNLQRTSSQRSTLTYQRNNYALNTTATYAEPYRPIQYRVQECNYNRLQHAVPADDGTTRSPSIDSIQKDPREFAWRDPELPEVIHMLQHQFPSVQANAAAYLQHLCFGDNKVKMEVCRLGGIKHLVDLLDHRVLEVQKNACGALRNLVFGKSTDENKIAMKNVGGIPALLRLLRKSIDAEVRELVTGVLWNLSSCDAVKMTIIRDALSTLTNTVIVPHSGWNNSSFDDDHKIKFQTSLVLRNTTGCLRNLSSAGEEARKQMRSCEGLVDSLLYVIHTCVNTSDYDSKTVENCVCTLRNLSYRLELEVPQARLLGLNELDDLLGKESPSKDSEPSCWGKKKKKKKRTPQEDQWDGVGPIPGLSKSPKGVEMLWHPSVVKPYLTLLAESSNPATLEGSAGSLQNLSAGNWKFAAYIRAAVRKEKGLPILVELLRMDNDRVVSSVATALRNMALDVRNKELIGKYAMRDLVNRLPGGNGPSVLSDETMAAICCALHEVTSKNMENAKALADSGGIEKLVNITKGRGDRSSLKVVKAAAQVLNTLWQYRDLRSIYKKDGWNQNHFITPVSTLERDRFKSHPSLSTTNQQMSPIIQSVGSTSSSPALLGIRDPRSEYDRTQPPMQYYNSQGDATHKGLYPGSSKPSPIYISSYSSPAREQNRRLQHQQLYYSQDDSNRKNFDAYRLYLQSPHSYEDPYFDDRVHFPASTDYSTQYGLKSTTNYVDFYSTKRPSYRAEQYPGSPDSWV
# [11] = test system: MDA-MB-231; assay: Inhibition of cell migration in human MDA-MB-231 cells with syntenin CRISPR/Cas9 knockout assessed as decrease in migration speed at 100 uM incubated for 24 hrs by 2D phase contrast video microscopic analysis; format: functional, cell-based
# [12] = test system: MDA-MB-231; assay: Inhibition of cell migration in wild-type human MDA-MB-231 cells assessed as decrease in euclidean distance at 1 to 10 uM incubated for 24 hrs by 2D phase contrast video microscopic analysis; format: functional, cell-based; conditions: dose 1-10 µM
# [13] = molecular target: T2, Syntenin-1 (Homo sapiens, UniProt O00560); assay: Binding affinity to full length N-terminal GST-tagged human syntenin-1 expressed in Escherichia coli ER2566 assessed as dissociation constant by ITC analysis
# T2 sequence (O00560 whole entry): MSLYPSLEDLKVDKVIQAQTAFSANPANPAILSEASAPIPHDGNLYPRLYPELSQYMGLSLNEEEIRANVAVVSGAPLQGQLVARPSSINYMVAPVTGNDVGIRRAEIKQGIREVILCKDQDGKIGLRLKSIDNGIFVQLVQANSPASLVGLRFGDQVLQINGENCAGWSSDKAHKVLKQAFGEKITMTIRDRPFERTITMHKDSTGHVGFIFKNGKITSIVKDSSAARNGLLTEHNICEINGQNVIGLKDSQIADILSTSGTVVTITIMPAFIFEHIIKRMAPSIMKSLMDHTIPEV
# [14] = test system: MDA-MB-231; assay: Inhibition of cell migration in wild-type human MDA-MB-231 cells assessed as decrease in migration speed at 1 to 10 uM incubated for 24 hrs by 2D phase contrast video microscopic analysis; format: functional, cell-based; conditions: dose 1-10 µM
IC50 [1],SMILES,further results
> 500 µM,CC(C)C[C@H](NC(=O)[C@H](Cc1ccccc1)N1Cc2ccccc2C1=O)C(=O)O,–
> 200 µM,CC(C)[C@@H](C(=O)N[C@@H](C)C(=O)O)N1Cc2ccc(Br)cc2C1=O,–
> 200 µM,CC(C)[C@@H](C(=O)N[C@@H](C)C(=O)O)N1Cc2c(Cl)cccc2C1=O,–
> 500 µM,O=C(O)[C@H](Cc1ccccc1)NC(=O)[C@H](Cc1ccccc1)N1Cc2ccccc2C1=O,–
1.5 µM,C[C@H](NC(=O)[C@H](Cc1ccc(-c2cc(CO)ccc2F)cc1)N1Cc2cc(Br)ccc2C1=O)C(=O)O,–
> 500 µM,CC[C@H](C)[C@H](NC(=O)[C@H](CC(C)C)N1Cc2ccccc2C1=O)C(=O)O,–
> 500 µM,CC[C@H](C)[C@H](NC(=O)[C@H](Cc1ccccc1)N1Cc2ccccc2C1=O)C(=O)O,–
> 500 µM,CC(C)C[C@@H](C(=O)N[C@@H](Cc1ccccc1)C(=O)O)N1Cc2ccccc2C1=O,–
33 µM,C[C@H](NC(=O)[C@H](Cc1c[nH]c2ccccc12)N1Cc2ccccc2C1=O)C(=O)O,–
–,COc1cc2cc(C(=O)N(C)CCOc3cccc(Cl)c3)[nH]c2c(OC)c1OC,inhibition [2]: > 60%
> 500 µM,CC[C@H](C)[C@H](NC(=O)[C@H](C(C)C)N1Cc2ccccc2C1=O)C(=O)O,–
63 µM,"C[C@H](NC(=O)C(CSCc1ccccc1)N1Cc2ccccc2C1=O)C(=O)O (single isomer, unassigned)",–
35 µM,C[C@H](NC(=O)[C@H](Cc1ccc(Br)cc1)N1Cc2ccccc2C1=O)C(=O)O,–
5.3 µM,C[C@H](NC(=O)[C@H](Cc1ccc(-c2cc(CO)ccc2F)cc1)N1Cc2ccccc2C1=O)C(=O)O,–
–,CC(Oc1ccc(-c2cc(N)nc3[nH]ccc23)cc1Cl)C(=O)O (centres undefined),inhibition [2]: > 60%
–,CCOc1nc2ccccc2nc1N1CCCC(C(=O)N2CCc3ccccc3C2)C1 (centres undefined),inhibition [2]: > 60%
–,CCOc1ccc2[nH]c(=O)c(CN(C3CCCCC3)C(CC)c3nnnn3C(C)(C)C)cc2c1 (centres undefined),inhibition [2]: > 60%
> 500 µM,CC(C)C[C@H](NC(=O)[C@H](CC(C)C)N1Cc2ccccc2C1=O)C(=O)O,–
> 500 µM,CC(C)[C@H](NC(=O)[C@H](Cc1ccccc1)N1Cc2ccccc2C1=O)C(=O)O,inhibition [3]: Active; inhibition [4]: Active
0.82 µM,CC(=O)Nc1ccc(-c2ccc(C[C@@H](C(=O)N[C@@H](C)C(=O)O)N3Cc4cc(Br)ccc4C3=O)cc2)cc1,–
7.7 µM,CC(=O)Nc1ccc(-c2ccc(C[C@@H](C(=O)N[C@@H](C)C(=O)O)N3Cc4ccccc4C3=O)cc2)cc1,–
–,CCOC(=O)C(Cc1c[nH]c2ccccc12)NC(=O)C(Cc1ccccc1)N1C(=O)c2ccccc2C1=O (centres undefined),inhibition [2]: > 60%
4 µM,C[C@H](NC(=O)[C@H](Cc1ccc(-c2ccc3occc(=O)c3c2)cc1)N1Cc2ccccc2C1=O)C(=O)O,–

IC50 [1],SMILES,further results
14 µM,CC(C)[C@@H](C(=O)N[C@@H](C)C(=O)O)N1Cc2cc(Cl)ccc2C1=O,–
5.2 µM,C[C@H](NC(=O)[C@H](Cc1ccc2ccccc2c1)N1Cc2cc(Br)ccc2C1=O)C(=O)O,–
10 µM,COc1ccc(F)c(-c2ccc(C[C@@H](C(=O)N[C@@H](C)C(=O)O)N3Cc4ccccc4C3=O)cc2)c1,–
213 µM,CC(C)C[C@@H](C(=O)N[C@@H](C)C(=O)O)N1Cc2ccccc2C1=O,–
67 µM,C[C@H](NC(=O)[C@H](Cc1ccccc1)N1Cc2ccccc2C1=O)C(=O)O,–
4.2 µM,CC(=O)c1ccc(F)c(-c2ccc(C[C@@H](C(=O)N[C@@H](C)C(=O)O)N3Cc4ccccc4C3=O)cc2)c1,–
76 µM,CC(C)[C@@H](C(=O)N[C@@H](C)C(=O)O)N1Cc2ccccc2C1=O,Activity [5]: inactive; inhibition [3]: Active; inhibition [4]: Active; Activity [6]: inactive; inhibition [7]: inactive; inhibition [8]: Active; inhibition [9]: inactive; inhibition [10]: inactive; inhibition [2]: > 60%; inhibition [11]: inactive
> 500 µM,CC(C)[C@H](NC(=O)[C@H](C(C)C)N1Cc2ccccc2C1=O)C(=O)O,–
128 µM,COc1ccc(C[C@@H](C(=O)N[C@@H](C)C(=O)O)N2Cc3ccccc3C2=O)cc1,–
78 µM,C[C@H](NC(=O)[C@H](Cc1ccc(Cl)cc1)N1Cc2ccccc2C1=O)C(=O)O,–
20 µM,CC(C)[C@@H](C(=O)N[C@@H](C)C(=O)O)N1Cc2cc(Br)ccc2C1=O,–
> 500 µM,CC(C)[C@@H](C(=O)N[C@@H](Cc1ccccc1)C(=O)O)N1Cc2ccccc2C1=O,–
0.4 µM,CC(=O)c1ccc(F)c(-c2ccc(C[C@@H](C(=O)N[C@@H](C)C(=O)O)N3Cc4cc(Br)ccc4C3=O)cc2)c1,Activity [5]: inactive; inhibition [3]: Active; inhibition [4]: Active; Activity [6]: inactive; inhibition [12]: Active; inhibition [7]: inactive; Kd [13]: 1800 nM; inhibition [9]: inactive; inhibition [14]: Active; inhibition [10]: inactive; inhibition [11]: inactive
13 µM,C[C@H](NC(=O)[C@H](Cc1ccc2ccccc2c1)N1Cc2ccccc2C1=O)C(=O)O,–
44 µM,C[C@H](NC(=O)[C@H](Cc1ccc(O)cc1)N1Cc2ccccc2C1=O)C(=O)O,–
> 200 µM,Cc1ccc(C[C@@H](C(=O)N[C@@H](C)C(=O)O)N2Cc3ccccc3C2=O)cc1,–
> 500 µM,CC(C)C[C@@H](C(=O)N[C@H](C(=O)O)C(C)C)N1Cc2ccccc2C1=O,–
9.9 µM,C[C@H](NC(=O)[C@H](Cc1ccc(-c2ccccc2F)cc1)N1Cc2ccccc2C1=O)C(=O)O,–
> 500 µM,CC(C)C[C@H](NC(=O)[C@H](C(C)C)N1Cc2ccccc2C1=O)C(=O)O,–
–,COc1ccccc1NC(=O)N1CCCC(c2nc(O)c3nnn(Cc4ccc(C)cc4)c3n2)C1 (centres undefined),inhibition [2]: > 60%
180 µM,C[C@H](NC(=O)[C@H](Cc1ccc(C#N)cc1)N1Cc2ccccc2C1=O)C(=O)O,–
–,C[C@H](NC(=O)[C@H](Cc1ccccc1)NC(=O)c1cc2cc(Cl)ccc2n1C)C(=O)O,inhibition [2]: > 60%
6.3 µM,C[C@H](NC(=O)[C@H](Cc1ccc(-c2ccc3c(c2)C(=O)N(C)C3)cc1)N1Cc2ccccc2C1=O)C(=O)O,–
